Holding throughout (type): in vivo
The subject of test [1] is Beet Armyworm (Spodoptera exigua, LAPHEG). In words: Bioassay on Beet Armyworm (BAW), 128-well diet tray assay. In short, it runs like this: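 Diet tray, 8 wells/compound; 50 μg/cm^2 applied to diet surface (90:10 acetone-water), dried. 1–5 L2 larvae/well; 25° C., 14:10 L:D, 5–7 d. Read-out: % mortality, mean of 8 wells.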
Test [2] relates to Cabbage Looper (Trichoplusia ni, TRIPNI). In words: Bioassay on Cabbage Looper (CL), 128-well diet tray assay. Particulars: Trichoplusia ni. In short, it runs like this: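 Test molecule is dissolved in 90:10 acetone-water and applied at 50 μg/cm^2 onto artificial diet, then dried. One to five second-instar larvae go into each of eight wells. Trays, sealed but vented, stay at 25° C., 14:10 light-dark, five to seven days, after which mortality is averaged.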

Test [3] relates to Yellow Fever Mosquito (Aedes aegypti, AEDSAE). In words: Bioassay on Yellow Fever Mosquito (YFM), 96-well plate larval assay. Particulars: for YFM (Biological Results, rating): Species YFM (Yellow Fever Mosquito); for YFM rating: Yellow Fever Mosquito, 96-well plate larval assay. The method in brief:
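Each well was scored for mortality after 3 days at room temperature under a non-evaporative lid. Test molecules came from DMSO masters (4000 ppm stock) diluted with water/acetone 90:10 and dispensed into six replicate plates, which were then infested with roughly 1-day-old larvae in liver-powder water.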

Setting [4] is: Species BAW (Beet Armyworm), read-out: BAW (Biological Results, rating).
Where [5] appears, read: Species CL (Cabbage Looper), read-out: CL (Biological Results, rating).
[6] abbreviates: Beet Armyworm, 128-well diet tray assay, read-out: BAW rating.
The mark [7] stands for this setting: Cabbage Looper, 128-well diet tray assay, read-out: CL rating.

Molecules are shown by their SMILES. Read-outs that look alike come from different tables or passages of the source.

`CC(=O)Nc1ccc(NC(=O)c2cc(NC(=O)[C@H]3[C@H](c4cc(Cl)cc(Cl)c4)C3(Cl)Cl)cc(Cl)c2Cl)cc1` (relative stereo) [F248, trans-N-(4-Acetamidophenyl)-2,3-dichloro-5-(2,2-dichloro-3-(3,5-dichlorophenyl)cyclopropane-1-carboxamido)benzamide]: the pest or weed control at 50 µg/cm2 in test [1] (setting [4]) and in test [2] (setting [5]) was 50 to 100% in each case. Besides, the “YFM (Biological Results, rating)” value in test [3] is reported as “A (80-100)”.

Regarding `Cc1ccc2c(N)nn(C(=O)c3cc(NC(=O)[C@H]4[C@H](c5cc(Cl)cc(Cl)c5)C4(Cl)Cl)ccc3Cl)c2c1` (relative stereo) [F477, (trans)-N-(3-(3-Amino-6-methyl-1H-indazole-1-carbonyl)-4-chlorophenyl)-2,2-dichloro-3-(3,5-dichlorophenyl)cyclopropane-1-carboxamide], the pest or weed control at 50 µg/cm2 in test [1] (setting [6]) and in test [2] (setting [7]) was 50 to 100% throughout. Further, the YFM rating result in test [3] is reported as “A (80-100)”.

For the molecule `Nc1ccc(F)cc1NC(=O)c1cc(NC(=O)[C@H]2[C@H](c3ccc(F)c(Cl)c3)C2(Cl)Cl)ccc1Cl` [F421, N-(2-Amino-5-fluorophenyl)-2-chloro-5-((1R,3R)-2,2-dichloro-3-(3-chloro-4-fluorophenyl)cyclopropane-1-carboxamido)benzamide], the pest or weed control at 50 µg/cm2 in test [1] (setting [6]) and in test [2] (setting [7]) was 50 to 100% each time. Besides, in test [3], the YFM rating result is listed as “A (80-100)”.

For `Nc1cc(F)cc(F)c1NC(=O)c1cc(NC(=O)[C@H]2[C@H](c3ccc(F)c(Cl)c3)C2(Cl)Cl)ccc1Cl` [F409, N-(2-Amino-4,6-difluorophenyl)-2-chloro-5-((1R,3R)-2,2-dichloro-3-(3-chloro-4-fluorophenyl)cyclopropane-1-carboxamido)benzamide], the pest or weed control at 50 µg/cm2 in test [1] (setting [6]) and in test [2] (setting [7]) was 50 to 100% in each case. Also, in test [3], the YFM rating entry is “A (80-100)”.

Consider `O=C(Nc1ccc(F)cc1F)c1cc(NC(=O)[C@H]2[C@H](c3cc(F)cc(C(F)F)c3)C2(Cl)Cl)ccc1Cl` (relative stereo) [F560, 2-Chloro-5-(trans-2,2-dichloro-3-(3-(difluoromethyl)-5-fluorophenyl)cyclopropane-1-carboxamido)-N-(2,4-difluorophenyl)benzamide], for which the pest or weed control at 50 µg/cm2 in test [1] (setting [6]) and in test [2] (setting [7]) was 50 to 100% throughout. The YFM rating entry in test [3] is “A (80-100)”.

In the case of `O=C(Nc1ccc(F)cc1F)c1cc(NC(=O)[C@H]2[C@H](c3cc(Cl)cc(Cl)c3)C2(Cl)Cl)cc(Cl)c1Cl` (relative stereo) [F247, trans-2,3-Dichloro-5-(2,2-dichloro-3-(3,5-dichlorophenyl)cyclopropane-1-carboxamido)-N-(2,4-difluorophenyl)benzamide], the pest or weed control at 50 µg/cm2 in test [1] (setting [4]) and in test [2] (setting [5]) was 50 to 100% each time. For the same molecule, the “YFM (Biological Results, rating)” value in test [3] is recorded as “A (80-100)”.

As for `Nc1cncc(NC(=O)c2cc(NC(=O)[C@H]3[C@H](c4cc(Cl)cc(Cl)c4)C3(Cl)Cl)ccc2Cl)c1` [F362, N-(5-aminopyridin-3-yl)-2-chloro-5-((1R,3R)-2,2-dichloro-3-(3,5-dichlorophenyl)cyclopropane-1-carboxamido)benzamide], the pest or weed control at 50 µg/cm2 in test [1] (setting [4]) and in test [2] (setting [5]) was 50 to 100% throughout. Besides, the “YFM (Biological Results, rating)” value in test [3] is listed as “A (80-100)”.

As for `Cc1ccc2c(NC(=O)c3cc(NC(=O)[C@H]4[C@H](c5cc(Cl)cc(Cl)c5)C4(Cl)Cl)ccc3Cl)n[nH]c2c1` (relative stereo) [F478, 2-Chloro-5-(trans)-(2,2-dichloro-3-(3,5-dichlorophenyl)cyclopropane-1-carboxamido)-N-(6-methyl-1H-indazol-3-yl)benzamide], the pest or weed control at 50 µg/cm2 in test [1] (setting [6]) and in test [2] (setting [7]) was 50 to 100% throughout. Also, the YFM rating result in test [3] is on record as “A (80-100)”.

For `O=C(Nc1ccc(F)cc1F)c1cc(NC(=O)[C@H]2[C@H](c3ccc(C(F)(F)F)c(Cl)c3)C2(Cl)Cl)ccc1Cl` (relative stereo) [F367, 2-Chloro-5-(trans)-(2,2-dichloro-3-(3-chloro-4-(trifluoromethyl)phenyl)cyclopropane-1-carboxamido)-N-(2,4-difluorophenyl)benzamide], the pest or weed control at 50 µg/cm2 in test [1] (setting [4]) and in test [2] (setting [5]) was 50 to 100% throughout. For the same molecule, in test [3], the “YFM (Biological Results, rating)” value is given as “A (80-100)”.

As to `O=C(Nc1ncc(F)cc1F)c1cc(NC(=O)[C@H]2[C@H](c3cccc(C(F)F)c3)C2(Cl)Cl)ccc1Cl` (relative stereo) [F590, 2-Chloro-5-(trans-2,2-dichloro-3-(3-(difluoromethyl)phenyl)cyclopropane-1-carboxamido)-N-(3,5-difluoropyridin-2-yl)benzamide], the pest or weed control at 50 µg/cm2 in test [1] (setting [6]) and in test [2] (setting [7]) was 50 to 100% each time. The YFM rating result in test [3] was “A (80-100)”.

As for `CNc1cccc(NC(=O)c2cc(NC(=O)[C@H]3[C@H](c4cc(Cl)cc(Cl)c4)C3(Cl)Cl)ccc2Cl)c1` (relative stereo) [F202, trans-2-Chloro-5-(2,2-dichloro-3-(3,5-dichlorophenyl)cyclopropane-1-carboxamido)-N-(3-(methylamino)phenyl)benzamide], the pest or weed control at 50 µg/cm2 in test [1] (setting [4]) and in test [2] (setting [5]) was 50 to 100% throughout. Further, the “YFM (Biological Results, rating)” value in test [3] is “A (80-100)”.

For `Cc1cc(N)ccc1NC(=O)c1cccc(NC(=O)[C@H]2[C@H](c3ccc(Cl)c(Cl)c3)C2(Cl)Cl)c1` (relative stereo) [F265, trans-N-(4-Amino-2-methylphenyl)-3-(2,2-dichloro-3-(3,4-dichlorophenyl)cyclopropane-1-carboxamido)benzamide], the pest or weed control at 50 µg/cm2 in test [1] (setting [4]) and in test [2] (setting [5]) was 50 to 100% in each case. Also, the “YFM (Biological Results, rating)” value in test [3] was “A (80-100)”.

For `O=C(Nc1ncc(F)cc1F)c1cc(NC(=O)[C@H]2[C@H](c3ccc(Cl)c(C(F)F)c3)C2(Cl)Cl)ccc1Cl` (relative stereo) [F585, 2-Chloro-5-(trans-2,2-dichloro-3-(4-chloro-3-(difluoromethyl)phenyl)cyclopropane-1-carboxamido)-N-(3,5-difluoropyridin-2-yl)benzamide], the pest or weed control at 50 µg/cm2 in test [1] (setting [6]) and in test [2] (setting [7]) was 50 to 100% in each case. Further, in test [3], the YFM rating result is reported as “A (80-100)”.

As to `O=C(Nc1ccc(F)cc1[N+](=O)[O-])c1cc(NC(=O)[C@H]2[C@H](c3ccc(Cl)c(Cl)c3)C2(Cl)Cl)ccc1Cl` [F555, 2-Chloro-5-((1R,3R)-2,2-dichloro-3-(3,4-dichlorophenyl)cyclopropane-1-carboxamido)-N-(4-fluoro-2-nitrophenyl)benzamide], the pest or weed control at 50 µg/cm2 in test [1] (setting [6]) and in test [2] (setting [7]) was 50 to 100% in each case. Moreover, the YFM rating result in test [3] was “A (80-100)”.

With `O=C(Nc1ncccn1)c1cc(NC(=O)[C@H]2[C@H](c3cc(Cl)cc(Cl)c3)C2(Cl)Cl)ccc1Cl` (relative stereo) [F294, trans-2-Chloro-5-(2,2-dichloro-3-(3,5-dichlorophenyl)cyclopropane-1-carboxamido)-N-(pyrimidin-2-yl)benzamide], the pest or weed control at 50 µg/cm2 in test [1] (setting [4]) and in test [2] (setting [5]) was 50 to 100% throughout. In test [3], the “YFM (Biological Results, rating)” value was “A (80-100)”.

In the case of `COc1cc(NC(=O)c2cc(NC(=O)[C@H]3[C@H](c4cc(Cl)cc(Cl)c4)C3(Cl)Cl)ccc2Cl)c(Br)cn1` (relative stereo) [F548, N-(5-Bromo-2-methoxypyridin-4-yl)-2-chloro-5-(trans-2,2-dichloro-3-(3,5-dichlorophenyl)cyclopropane-1-carboxamido)benzamide], the pest or weed control at 50 µg/cm2 in test [1] (setting [6]) and in test [2] (setting [7]) was 50 to 100% each time. Further, in test [3], the YFM rating entry is “A (80-100)”.

With `O=C(Nc1ccc(F)cc1[N+](=O)[O-])c1cc(NC(=O)[C@H]2[C@H](c3cc(Cl)c(Cl)c(Cl)c3)C2(Cl)Cl)ccc1Cl` [F556, 2-Chloro-5-((1R,3R)-2,2-dichloro-3-(3,4,5-trichlorophenyl)cyclopropane-1-carboxamido)-N-(4-fluoro-2-nitrophenyl)benzamide], the pest or weed control at 50 µg/cm2 in test [1] (setting [6]) and in test [2] (setting [7]) was 50 to 100% in each case. Besides, the YFM rating result in test [3] is “A (80-100)”.

For `CN(C(=O)c1cc(NC(=O)[C@H]2[C@H](c3cc(Cl)c(Cl)cc3Cl)C2(Cl)Cl)ccc1Cl)c1ccc(F)cc1` (relative stereo) [F74, trans-2-Chloro-5-(2,2-dichloro-3-(2,4,5-trichlorophenyl)cyclopropane-1-carboxamido)-N-(4-fluorophenyl)-N-methylbenzamide], the pest or weed control at 50 µg/cm2 in test [1] (setting [4]) and in test [2] (setting [5]) was 50 to 100% throughout. The “YFM (Biological Results, rating)” value in test [3] is “B (More than 0-Less than 80)”.

On to `O=C(Nc1ccc(Cl)cn1)c1cc(NC(=O)[C@H]2[C@H](c3cc(Cl)cc(Cl)c3)C2(Cl)Cl)ccc1Cl` (relative stereo) [PF141, trans-2-Chloro-N-(5-chloropyridin-2-yl)-5-(2,2-dichloro-3-(3,5-dichlorophenyl)cyclopropane-1-carboxamido)benzamide], for which the pest or weed control at 50 µg/cm2 in test [1] (setting [6]) and in test [2] (setting [7]) was 50 to 100% throughout. The YFM rating result in test [3] is on record as “B (More than 0-Less than 80)”.

For the origin of these results see patent US10219516B2, “Molecules having pesticidal utility, and intermediates, compositions, and processes, related thereto” (priority 2015, dated 2019).
